Earlier results as cited in paper PMC6858927 (Investigational new drugs, 2019).

Test system: AML cells with TKD mutants
Settings: cited from earlier work

SMILES | sensitivity of AML cells with TKD mutants
CC(C)(C)c1cc(NC(=O)Nc2ccc(-c3cn4c(n3)sc3cc(OCCN5CCOCC5)ccc34)cc2)no1 [quizartinib] | highly resistant
CNC(=O)c1cc(Oc2ccc(NC(=O)Nc3ccc(Cl)c(C(F)(F)F)c3)cc2)ccn1 [sorafenib] | highly resistant
